Laboratory results: ChEMBL document CHEMBL1141411, “Structural characterization of daptomycin analogues A21978C1-3(d-Asn11) produced by a recombinant Streptomyces roseosporus strain” (2007)
Converted amounts (≈) assume the structure as drawn.

System: Staphylococcus aureus
Assay: Antibacterial activity against Staphylococcus aureus 42 by broth microdilution method
Type: functional

Question: `CCCCCCCCCC(=O)N[C@@H](Cc1c[nH]c2ccccc12)C(=O)N[C@H](CC(N)=O)C(=O)N[C@@H](CC(=O)O)C(=O)N[C@@H]1C(=O)NCC(=O)N[C@@H](CCCN)C(=O)N[C@@H](CC(=O)O)C(=O)N[C@H](C)C(=O)N[C@@H](CC(=O)O)C(=O)NCC(=O)N[C@H](CO)C(=O)N[C@@H]([C@H](C)CC(=O)O)C(=O)N[C@@H](CC(=O)c2ccccc2N)C(=O)O[C@@H]1C` was tested. Which MIC did it give?
Answer: 0.6 µM (≈ 0.972 µg/mL)

Question: For `CCC(C)CCCCCCC(=O)N[C@@H](Cc1c[nH]c2ccccc12)C(=O)N[C@H](CC(N)=O)C(=O)N[C@@H](CC(=O)O)C(=O)N[C@@H]1C(=O)NCC(=O)N[C@@H](CCCN)C(=O)N[C@@H](CC(=O)O)C(=O)N[C@H](C)C(=O)N[C@@H](CC(=O)O)C(=O)NCC(=O)N[C@H](CC(N)=O)C(=O)N[C@@H]([C@H](C)CC(=O)O)C(=O)N[C@@H](CC(=O)c2ccccc2N)C(=O)O[C@@H]1C` (some centres undefined), which MIC is on record?
Answer: 0.6 µM (≈ 0.997 µg/mL)

Question: With `CC(C)CCCCCCCCC(=O)N[C@@H](Cc1c[nH]c2ccccc12)C(=O)N[C@H](CC(N)=O)C(=O)N[C@@H](CC(=O)O)C(=O)N[C@@H]1C(=O)NCC(=O)N[C@@H](CCCN)C(=O)N[C@@H](CC(=O)O)C(=O)N[C@H](C)C(=O)N[C@@H](CC(=O)O)C(=O)NCC(=O)N[C@H](CC(N)=O)C(=O)N[C@@H]([C@H](C)CC(=O)O)C(=O)N[C@@H](CC(=O)c2ccccc2N)C(=O)O[C@@H]1C` as the molecule, how does the MIC read?
Answer: 0.3 µM (≈ 0.503 µg/mL)

Question: `CCC(C)CCCCCCCCC(=O)N[C@@H](Cc1c[nH]c2ccccc12)C(=O)N[C@H](CC(N)=O)C(=O)N[C@@H](CC(=O)O)C(=O)N[C@@H]1C(=O)NCC(=O)N[C@@H](CCCN)C(=O)N[C@@H](CC(=O)O)C(=O)N[C@H](C)C(=O)N[C@@H](CC(=O)O)C(=O)NCC(=O)N[C@H](CC(N)=O)C(=O)N[C@@H]([C@H](C)CC(=O)O)C(=O)N[C@@H](CC(=O)c2ccccc2N)C(=O)O[C@@H]1C` (some centres undefined) was tested. Which MIC did it give?
Answer: 0.15 µM (≈ 0.253 µg/mL)
